Reference: ChEMBL document CHEMBL1131489, “Dihydropyrancarboxamides related to zanamivir: a new series of inhibitors of influenza virus sialidases. 2. Crystallographic and molecular modeling study of complexes of 4-amino-4H-pyran-6-carboxamides and sialidase from influenza virus types A and B” (J Med Chem, 1998)

Target: Neuraminidase (Influenza A virus (A/Puerto Rico/8/1934(H1N1)), UniProt P03468)
Sequence (P03468 whole entry): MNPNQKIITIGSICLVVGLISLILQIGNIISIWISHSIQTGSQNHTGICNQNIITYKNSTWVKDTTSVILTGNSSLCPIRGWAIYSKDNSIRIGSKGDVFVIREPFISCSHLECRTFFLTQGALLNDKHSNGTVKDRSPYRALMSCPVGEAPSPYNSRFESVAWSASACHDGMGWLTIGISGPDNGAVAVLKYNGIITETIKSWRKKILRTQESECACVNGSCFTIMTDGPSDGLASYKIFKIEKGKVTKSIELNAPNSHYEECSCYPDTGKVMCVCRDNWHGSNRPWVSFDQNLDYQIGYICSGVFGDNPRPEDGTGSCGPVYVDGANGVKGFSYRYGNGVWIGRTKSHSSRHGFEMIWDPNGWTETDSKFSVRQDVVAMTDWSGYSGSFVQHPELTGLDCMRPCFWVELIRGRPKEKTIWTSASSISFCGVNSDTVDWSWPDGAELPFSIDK

CC(=O)N[C@H]1[C@H]([C@H](O)[C@H](O)CO)O[C@](O)(C(=O)O)C[C@@H]1O
IC50: 1000 µM
